US20210353579A1, “HIGH PENETRATION COMPOSITIONS AND USES THEREOF” (Techfields Pharma Co., Ltd., priority 2006, published 2021)

Experiments:
[1] = Plasma levels after transdermal administration to hairless mice; type: in vivo; details: for Peak plasma concentration of parent compound after prodrug compound / t, time to peak plasma level of parent compound after prodrug compound: mouse, in vivo; for t, time to peak plasma level after parent compound: parent compound administered (time when taken orally); for Peak plasma concentration after parent compound: parent compound administered, hairless mice
Experimental: Tested compounds (20% solution or suspension in 1 mL isopropanol) are administered transdermally to the skin of intact hairless mice. The plasma levels of the parent compounds are determined by HPLC.

[2] = test system: mice; assay: Analgesic activity, acetic acid writhing; type: in vivo
Experimental: The prodrug compounds are administered either transdermally or orally. The parent compounds are administered orally. The number of writhing that occurred when mice are administered the acetic acid solution are counted, and the rate of inhibition based on the control group which was not pretreated with any test compounds is calculated. […] The A group is the control group.

[3] = test system: rats; assay: Antipyretic activity, E. coli suspension as pyrogen; type: in vivo; details: in °C (unit assumed)
Experimental: Rats are administered with sterilized E. coli suspension as a pyrogen. Each group of rats are administered with a prodrug compounds or parent compounds at a dosage specified below. The prodrug compounds are administered either orally or transdermally. The parent compounds are administered orally.

[4] = test system: human skin tissue; details: pH 7.4; for In vitro penetration rate (apparent flux), parent compounds: human, 20 %
[5] = 50 mg/kg transdermally, 60 minutes before acetic acid
[6] = 100 mg/kg transdermally, 30 min before acetic acid

Row | Compound | Peak plasma concentration of parent compound after prodrug compound [1] [mg/L] | % (rate of writhing inhibition) [2, 5] [%] | No. of Writhing [2, 5] | body temperature, t = 0 min ([3]; 25 mg/kg transdermally) | body temperature, t = 90 min ([3]; 25 mg/kg transdermally) | body temperature, t = 180 min ([3]; 25 mg/kg transdermally) | body temperature, t = 270 min ([3]; 25 mg/kg transdermally) | In vitro penetration rate (apparent flux), prodrug compounds [4] [μg/cm^2/h] | t, time to peak plasma level of parent compound after prodrug compound [1] [min] | % (rate of writhing inhibition) [2, 6] [%] | No. of Writhing [2, 6] | body temperature, t = 0 min ([3]; 100 mg/kg transdermally) | body temperature, t = 90 min ([3]; 100 mg/kg transdermally) | body temperature, t = 180 min ([3]; 100 mg/kg transdermally) | body temperature, t = 270 min ([3]; 100 mg/kg transdermally) | t, time to peak plasma level after parent compound [1] [h] | Peak plasma concentration after parent compound [1] [mg/L] | In vitro penetration rate (apparent flux), parent compounds [4] [μg/cm^2/h]
1 | CN(C)CCCC(=O)OC1=C(C(=O)Nc2ccccn2)N(C)S(=O)(=O)c2ccsc21.Cl [4-N,N-dimethylaminobutyryloxy-2-methyl-N-2-pyridinyl-2H-thieno[2,3-e]-1,2-thiazine-3-carboxamide 1,1-dioxide.HCl] | 20 | 53 | 16.9 | 37.54 ± 0.06 | 36.61 ± 0.06 | 36.58 ± 0.08 | 36.55 ± 0.05 | 1800 | – | – | – | – | – | – | – | – | – | –
2 | CC(=O)O.CCN(CC)CCOC(=O)C1CCn2c(C(=O)c3ccccc3)ccc21 (centres unmarked) [diethylaminoethyl 5-benzoyl-2,3-dihydro-1H-pyrrolizine-1-carboxylate.AcOH] | 2000 | – | – | – | – | – | – | 3800 | 50 | 54 | 16.1 | 37.22 ± 0.06 | 36.65 ± 0.06 | 36.58 ± 0.08 | 36.51 ± 0.07 | – | – | –
3 | CC(=O)O.CCN(CC)CCOC(=O)C(C)c1ccc(CC2CCCC2=O)cc1 (centres unmarked) [diethylaminoethyl 2-[4-(2-oxocyclopentyl-methyl)phenyl]propionate.AcOH] | 2000 | – | – | – | – | – | – | 3400 | 50 | 55 | 15.7 | 37.25 ± 0.06 | 36.71 ± 0.05 | 36.65 ± 0.08 | 36.64 ± 0.07 | – | – | –
4 | CC(=O)O.CCN(CC)CCOC(=O)C(C)c1ccc(-c2ccccc2)c(F)c1 (centres unmarked) [diethylaminoethyl 2-(2-fluoro-4-biphenylyl)propionate.AcOH] | 2000 | – | – | – | – | – | – | 3500 | 50 | 55 | 15.6 | 37.29 ± 0.07 | 36.82 ± 0.06 | 36.70 ± 0.05 | 36.67 ± 0.08 | – | – | –
5 | 8-chloro-(4-N,N-dimethylaminobutyryloxy-pyridine-2-ylamino-methylidene)-3-methyl-2,2-dioxo-2λ^6,7-dithia-3-azabicyclo[4,3,0]nona-8,10-dien-5-one.HCl | – | 50 | 17.5 | 37.53 ± 0.05 | 36.57 ± 0.05 | 36.52 ± 0.07 | 36.51 ± 0.06 | – | – | – | – | – | – | – | – | – | – | –
6 | CN1C(C(=O)Nc2ccccn2)=C(O)c2sccc2S1(=O)=O [Tenoxicam, tenoxicam, reference compound] | – | – | – | – | – | – | – | – | – | – | – | – | – | – | – | 2 to 4 | 0.1 | <1
7 | O=C(O)CCC(=O)c1ccc(-c2ccccc2)cc1 [Fenbufen, fenbufen, reference compound] | – | – | – | – | – | – | – | – | – | – | – | – | – | – | – | 2 to 4 | 10 | 40
